These results are taken from patent publication US20210122763A1, “OGA INHIBITOR COMPOUNDS” (Janssen Pharmaceutica NV, priority 2018, published 2021).

The target of one experiment is T1, OGA (Homo sapiens, UniProt O60502).
T1 construct: HEK293 cells inducible for P301L mutant human Tau (isoform 2N4R) were established at Janssen; endogenous in cells; host or cells: HEK293 cells inducible for P301L mutant human Tau (2N4R)
T1 sequence (O60502 1-916): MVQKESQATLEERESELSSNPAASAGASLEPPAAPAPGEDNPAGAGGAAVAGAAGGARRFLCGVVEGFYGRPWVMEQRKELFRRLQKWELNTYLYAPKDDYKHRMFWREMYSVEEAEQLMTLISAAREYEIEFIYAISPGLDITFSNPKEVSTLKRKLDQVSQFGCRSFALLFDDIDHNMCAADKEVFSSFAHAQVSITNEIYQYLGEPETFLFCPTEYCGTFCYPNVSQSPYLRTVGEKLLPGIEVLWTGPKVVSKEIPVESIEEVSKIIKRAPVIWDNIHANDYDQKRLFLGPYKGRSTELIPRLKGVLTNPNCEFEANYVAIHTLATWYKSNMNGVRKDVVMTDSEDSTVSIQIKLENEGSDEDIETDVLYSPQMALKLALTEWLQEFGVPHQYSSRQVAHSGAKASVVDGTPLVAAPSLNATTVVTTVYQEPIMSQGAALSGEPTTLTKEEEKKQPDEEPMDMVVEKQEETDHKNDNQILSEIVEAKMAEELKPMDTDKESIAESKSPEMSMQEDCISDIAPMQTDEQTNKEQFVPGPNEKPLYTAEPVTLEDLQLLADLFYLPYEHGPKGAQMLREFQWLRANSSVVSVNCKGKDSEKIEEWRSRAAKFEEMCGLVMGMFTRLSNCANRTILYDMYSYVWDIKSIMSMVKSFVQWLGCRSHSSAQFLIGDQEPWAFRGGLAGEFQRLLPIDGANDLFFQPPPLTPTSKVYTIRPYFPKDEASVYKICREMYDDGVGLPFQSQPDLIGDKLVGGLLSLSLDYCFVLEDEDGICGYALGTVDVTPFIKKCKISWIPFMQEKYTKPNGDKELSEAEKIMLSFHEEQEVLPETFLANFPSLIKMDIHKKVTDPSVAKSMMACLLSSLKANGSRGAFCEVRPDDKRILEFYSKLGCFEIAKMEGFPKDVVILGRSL
The experiment in a line: OGA cellular assay (ICC detection of O-GlcNAcylated proteins in HEK293 cells inducible for P301L mutant human Tau). In kind it is cell-based. Conditions: 6 hours incubation; for Emax: HEK293, HEK293 cells inducible for P301L mutant human Tau, maximum = Thiamet G 200 uM; for EC50: HEK293 cells inducible for P301L mutant human Tau, read-out: Cellular hOGA, pEC50 (converted). As to the method:
HEK293 cells inducible for P301L mutant human Tau (isoform 2N4R) were established at Janssen. Thiamet-G was used for both plate validation (high control) and as reference compound (reference EC50 assay validation). OGA inhibition is evaluated through the immunocytochemical (ICC) detection of O-GlcNAcylated proteins by the use of a monoclonal antibody (CTD110.6; Cell Signaling, #9875) detecting 0-GlcNAcylated residues as previously described (Dorfmueller et al. 2010 Chemistry & biology, 17:1250). Inhibition of OGA will result in an increase of 0-GlcNAcylated protein levels resulting in an increased signal in the experiment. Cell nuclei are stained with Hoechst to give a cell culture quality control and a rough estimate of immediate compounds toxicity, if any. ICC pictures are imaged with a Perkin Elmer Opera Phenix plate microscope and quantified with the provided software Perkin Elmer Harmony 4.1.
Cells were propagated in DMEM high Glucose (Sigma, #D5796) following standard procedures. 2 days before the cell assay cells are split, counted and seeded in Poly-D-Lysine (PDL) coated 96-wells (Greiner, #655946) plate at a cell density of 12,000 cells per cm^2 (4,000 cells per well) in 100p of Assay Medium (Low Glucose medium is used to reduce basal levels of GlcNAcylation) (Park et al. 2014 The Journal of biological chemistry 289:13519). At the day of compound test medium from assay plates was removed and replenished with 90 μl of fresh Assay Medium. 10 μl of compounds at a 10 fold final concentration were added to the wells. Plates were centrifuged shortly before incubation in the cell incubator for 6 hours. DMSO concentration was set to 0.2%. Medium is discarded by applying vacuum. For staining of cells medium was removed and cells washed once with 100 μl D-PBS (Sigma, #D8537). From next step onwards unless other stated assay volume was always 50p and incubation was performed without agitation and at room temperature. Cells were fixed in 50 μl of a 4% paraformaldehyde (PFA, Alpha aesar, #043368) PBS solution for 15 minutes at room temperature. […] Before analysis samples were washed 2 times manually for 5 minutes in ICC base buffer.
Imaging is performed using Perkin Elmer Phenix Opera using a water 20× objective and recording 9 fields per well. Intensity readout at 488 nm is used as a measure of O-GlcNAcylation level of total proteins in wells. To assess potential toxicity of compounds nuclei were counted using the Hoechst staining. IC50-values are calculated using parametric non-linear regression model fitting. As a maximum inhibition Thiamet G at a 200 uM concentration is present on each plate. In addition, a concentration response of Thiamet G is calculated on each plate.

The target in experiment [1] is T2, recombinant human Meningioma Expressed Antigen 5 (MGEA5), also referred to as O-GlcNAcase (OGA) (Homo sapiens, UniProt O60502).
T2 construct: Full length OGA enzyme was purchased at OriGene (cat #TP322411); purchased OriGene TP322411
T2 sequence (O60502 1-916): T1 sequence (O60502 1-916)
The experiment can be described thus: OGA biochemical assay (inhibition of FM-GlcNAc hydrolysis, fluorescence). Conditions: for Emax: read-out: Enzymatic Emax (%); for IC50: read-out: Enzymatic hOGA, pIC50 (converted). The text has this: The assay is based on the inhibition of the hydrolysis of fluorescein mono-B-D-N-Acetyl-Glucosamine (FM-GcNAc) (Mariappa et al. 2015, Biochem J470:255) by the recombinant human Meningioma Expressed Antigen 5 (MGEA5), also referred to as O-GlcNAcase (OGA). The hydrolysis FM-GlcNAc (Marker Gene technologies, cat #M1485) results in the formation of B-D-N-glucosamineacetate and fluorescein. The fluorescence of the latter can be measured at excitation wavelength 485 nm and emission wavelength 538 nm. An increase in enzyme activity results in anincrease in fluorescence signal. Full length OGA enzyme was purchased at OriGene (cat #TP322411). The enzyme was stored in 25 mM Tris.HCl, pH 7.3, 100 mM glycine, 10% glycerol at −20° C. Thiamet G and GlcNAcStatin were tested as reference compounds (Yuzwa et al. 2008 Nature Chemical Biology 4:483; Yuzwa et al. 2012 Nature Chemical Biology 8:393). The assay was performed in 200 mM Citrate/phosphate buffer supplemented with 0.005% Tween-20. 35.6 g Na2HPO4 2H2O (Sigma, #C0759) were dissolved in 1 L water to obtain a 200 mM solution. 19.2 g citric acid (Merck, #1.06580) was dissolved in 1 L water to obtain a 100 mM solution. pH of the sodiumphosphate solution was adjusted with the citric acid solution to 7.2. The buffer to stop the reaction consists of a 500 mM Carbonate buffer, pH 11.0. 734 mg FM-GlcNAc were dissolved in 5.48 mL DMSO to obtain a 250 mM solution and was stored at −20° C. OGA was used at a 2 nM concentration and FM-GcNAc at a 100 uM final concentration. Dilutions were prepared in assay buffer.
50 nl of a compound dissolved in DMSO was dispensed on Black Proxiplate™ 384 Plus Assay plates (Perkin Elmer, #6008269) and 3 μl fl-OGA enzyme mix added subsequently. Plates were pre-incubated for 60 min at room temperature and then 2 μl FM-GlcNAc substrate mix added.
Plates were briefly centrifuged for 1 min at 1000 rpm and incubate at room temperature for 6 h. To stop the reaction 5 μl STOP buffer were added and plates centrifuge again 1 min at 1000 rpm. Fluorescence was quantified in the Thermo Scientific Fluoroskan Ascent or the PerkinElmer EnVision with excitation wavelength 485 nm and emission wavelength 538 nm.
For analysis a best-fit curve is fitted by a minimum sum of squares method. From this an IC50 value and Hill coefficient was obtained. High control (no inhibitor) and low control (saturating concentrations of standard inhibitor) were used to define the minimum and maximum values.

SMILES strings stand for the structures. Where only a bound is given, the exact number is not on record here.

In the case of `Cc1cc(OC2CCN([C@H](C)c3nc4c(cc3F)OCCO4)CC2)nc(C)n1` (single isomer, unassigned) [Compound 55], on OGA, the Emax was 14% and the EC50 was greater than 1000 nM. Besides, in experiment [1], the Emax worked out at 97% and the IC50 is 200 nM.

In the case of `Cc1cc(OC2CCN(C(C)c3ccc4c(n3)OCCO4)CC2)cc(C(F)(F)F)n1` (stereo not shown) [Compound 17], on OGA, the Emax was 61% and the EC50 was 316 nM. Moreover, in experiment [1], the Emax was determined as 100% and the IC50 was 39.8 nM.

In the case of `CC(c1nc2c(cc1F)OCCO2)N1CCC(Oc2ccc(C3CC3)nc2)CC1` (stereo not shown) [Compound 164], at OGA, the Emax turned out to be 72% and the EC50 is 67.6 nM. In addition, in experiment [1], the Emax worked out at 96% and the IC50 is 7.94 nM.

In the case of `COc1cc(OC2CCN(C(C)c3nc4c(cc3F)OCCO4)CC2)cc(C)n1` (stereo not shown) [Compound 15], at OGA, the Emax turned out to be 72% and the EC50 was 50.1 nM. For the same molecule, in experiment [1], the Emax worked out at 102% and the IC50 was 5.01 nM.

As for `Cc1cc(O[C@H]2CCN(C(C)c3ccc4c(n3)OCCO4)C[C@H]2C)cc(C)n1` (stereo partly shown) [Compound 28], on OGA, the Emax turned out to be 68% and the EC50 is 126 nM. Moreover, in experiment [1], the Emax is 101% and the IC50 was 10 nM.

As for `CC(c1ccc2c(n1)OCCO2)N1CCC(Oc2ncc(F)cc2F)CC1` (stereo not shown) [Compound 52], on OGA, the Emax was 16% and the EC50 was greater than 1000 nM. Also, in experiment [1], the Emax came out at 96% and the IC50 was 501 nM.

Turning to `Cc1cc(OC2CCN(C(C)c3cnc4c(c3)OCC4)CC2)cc(C)n1` (stereo not shown) [Compound 58], at OGA, the Emax is 38%. In experiment [1], the Emax was 89% and the IC50 was 1260 nM.

As for `Cc1cc(OC2CCN([C@H](C)c3ccc4c(n3)OCCO4)CC2)cc(C(F)(F)F)n1` (single isomer, unassigned) [Compound 146], at OGA, the Emax is 2% and the EC50 is greater than 1000 nM. In addition, in experiment [1], the Emax is 58% and the IC50 is 6310 nM.

With `Cc1cc(OC2CCN(C(C)c3nc4c(cc3F)CCO4)CC2)c(Cl)c(C)n1` (stereo not shown) [Compound 35], at OGA, the Emax was determined as 98% and the EC50 was 25.1 nM. In experiment [1], the Emax came to 101% and the IC50 was 7.94 nM.

Regarding `Cc1cc(OC2CCN(C(C)c3nc4c(cc3F)OCCO4)CC2)ccn1` (stereo not shown) [Compound 162], on OGA, the Emax worked out at 83% and the EC50 was 63.1 nM. Further, in experiment [1], the Emax stood at 98% and the IC50 is 12.6 nM.

As to `Cc1cc(OC2CCN(C(C)c3cnc4c(c3)OCCO4)CC2)cc(C(F)(F)F)n1` (stereo not shown) [Compound 19], on OGA, the Emax came to 17% and the EC50 was greater than 1000 nM. In experiment [1], the Emax was found to be 92% and the IC50 is 1000 nM.

For `Cc1ccc(OC2CCN(C(C)c3nc4c(cc3F)OCCO4)CC2)nc1` (stereo not shown) [Compound 165], at OGA, the Emax was 72% and the EC50 was 316 nM. In experiment [1], the Emax is 94% and the IC50 was 15.8 nM.

In the case of `CC(c1ccc2c(n1)OCCO2)N1CCC(Oc2ccncc2C#N)CC1` (stereo not shown) [Compound 104], at OGA, the Emax is 12% and the EC50 was greater than 1000 nM. Moreover, in experiment [1], the Emax amounted to 95% and the IC50 is 631 nM.

Regarding `Cc1cc(OC2CCN([C@@H](C)c3nc4c(cc3F)OCCO4)CC2)cc(C)n1` (single isomer, unassigned) [Compound 149], at OGA, the Emax is -2% and the EC50 is greater than 1000 nM. In experiment [1], the Emax was 58% and the IC50 is 6310 nM.

Take `Cc1cc(OC2CCN(C(C)c3ccc4c(n3)OCCO4)CC2)cc(C)n1` (stereo not shown) [Compound 1]: in experiment [1], the Emax was 101% and the IC50 is 63.1 nM.

Turning to `Cc1cc(OC2CCN(C(C)c3ccc4c(n3)OCCO4)CC2)nc(C)n1` (single isomer, unassigned) [Compound 11], in experiment [1], the “Enzymatic Emax (%)” value stood at 84% and the IC50 was 2510 nM.

Consider `Cc1cc(OC2CCN(C(C)c3ccc4c(n3)OCCO4)CC2)nc(C)n1` (stereo not shown) [Compound 9], for which, in experiment [1], the Emax was 102% and the IC50 is 100 nM.
